Source: ChEMBL document CHEMBL1201861, “Genomics of Drug Sensitity in Cancer screening data, Wellcome Trust Sanger Institute”

How the values were obtained:
Assay in all cases: cells
ACHN = assay type: functional, cell-based; details: Homo sapiens
Description: SANGER: Inhibition of human ACHN cell growth in a cell viability assay.

NCI-H1563 = assay type: functional, cell-based; details: Homo sapiens
Description: SANGER: Inhibition of human NCI-H1563 cell growth in a cell viability assay.

EW-24 = assay type: functional, cell-based, Homo sapiens; details: Homo sapiens, EW-24
Description: SANGER: Inhibition of human EW-24 cell growth in a cell viability assay.

COLO-741 = assay type: functional, cell-based; details: Homo sapiens
Description: SANGER: Inhibition of human COLO-741 cell growth in a cell viability assay.

KYSE-150 cell line = assay type: functional, cell-based; details: Homo sapiens
Description: SANGER: Inhibition of human KYSE-150 cell growth in a cell viability assay.

J82 = assay type: functional, cell-based; details: Homo sapiens
Description: SANGER: Inhibition of human J82 cell growth in a cell viability assay.

FaDu = assay type: functional, cell-based; details: Homo sapiens
Description: SANGER: Inhibition of human FADU cell growth in a cell viability assay.

HT1197 = assay type: functional, cell-based, HT-1197; details: Homo sapiens
Description: SANGER: Inhibition of human HT-1197 cell growth in a cell viability assay.

FTC-133 = assay type: functional, cell-based; details: Homo sapiens
H4 = assay type: functional, cell-based; details: Homo sapiens
Description: SANGER: Inhibition of human H4 cell growth in a cell viability assay.

SW948 = assay type: functional, cell-based; details: Homo sapiens
Description: SANGER: Inhibition of human SW948 cell growth in a cell viability assay.

D-392MG = assay type: functional, cell-based; details: Homo sapiens
MIA PaCa-2 = assay type: functional, cell-based; details: Homo sapiens
Description: SANGER: Inhibition of human MIA-PaCa-2 cell growth in a cell viability assay.

NCI-H520 = assay type: functional, cell-based; details: Homo sapiens
Description: SANGER: Inhibition of human NCI-H520 cell growth in a cell viability assay.

A2780 = assay type: functional, cell-based; details: Homo sapiens
Description: SANGER: Inhibition of human A2780 cell growth in a cell viability assay.

LCLC-97TM1 = assay type: functional, cell-based; details: Homo sapiens
Description: SANGER: Inhibition of human LCLC-97TM1 cell growth in a cell viability assay.

GP5d = assay type: functional, cell-based; details: Homo sapiens
Description: SANGER: Inhibition of human GP5d cell growth in a cell viability assay.

CAMA-1 = assay type: functional, cell-based; details: Homo sapiens
Description: SANGER: Inhibition of human CAMA-1 cell growth in a cell viability assay.

NCI-H1573 = assay type: functional, cell-based; details: Homo sapiens
Description: SANGER: Inhibition of human NCI-H1573 cell growth in a cell viability assay.

COR-L105 = assay type: functional, cell-based; details: Homo sapiens
Description: SANGER: Inhibition of human COR-L105 cell growth in a cell viability assay.

KYSE-510 = assay type: functional, cell-based; details: Homo sapiens
Description: SANGER: Inhibition of human KYSE-510 cell growth in a cell viability assay.

A2058 = assay type: functional, cell-based; details: Homo sapiens
Description: SANGER: Inhibition of human A2058 cell growth in a cell viability assay.

NCI-H2087 = assay type: functional, cell-based; details: Homo sapiens
Description: SANGER: Inhibition of human NCI-H2087 cell growth in a cell viability assay.

HPAF-II = assay type: functional, cell-based; details: Homo sapiens
Description: SANGER: Inhibition of human HPAF-II cell growth in a cell viability assay.

HuTu80 = assay type: functional, cell-based, Homo sapiens, HUTU-80; details: Homo sapiens, HuTu80
Description: SANGER: Inhibition of human HUTU-80 cell growth in a cell viability assay.

MKN-28 = assay type: functional, cell-based; details: Homo sapiens
Description: SANGER: Inhibition of human MKN28 cell growth in a cell viability assay.

LN-405 = assay type: functional, cell-based; details: Homo sapiens
Description: SANGER: Inhibition of human LN-405 cell growth in a cell viability assay.

HCC70 = assay type: functional, cell-based; details: Homo sapiens
Description: SANGER: Inhibition of human HCC70 cell growth in a cell viability assay.

COLO-678 = assay type: functional, cell-based; details: Homo sapiens
Description: SANGER: Inhibition of human COLO-678 cell growth in a cell viability assay.

NCI-H727 = assay type: functional, cell-based; details: Homo sapiens
Description: SANGER: Inhibition of human NCI-H727 cell growth in a cell viability assay.

SW1990 = assay type: functional, cell-based; details: Homo sapiens
Description: SANGER: Inhibition of human SW1990 cell growth in a cell viability assay.

VM-CUB-1 = assay type: functional, cell-based; details: Homo sapiens
Description: SANGER: Inhibition of human VM-CUB-1 cell growth in a cell viability assay.

769-P = assay type: functional, cell-based; details: Homo sapiens
Description: SANGER: Inhibition of human 769-P cell growth in a cell viability assay.

DU-145 = assay type: functional, cell-based; details: Homo sapiens
Description: SANGER: Inhibition of human DU-145 cell growth in a cell viability assay.

LoVo = assay type: functional, cell-based; details: Homo sapiens
Description: SANGER: Inhibition of human LoVo cell growth in a cell viability assay.

TYK-nu = assay type: functional, cell-based; details: Homo sapiens
Description: SANGER: Inhibition of human TYK-nu cell growth in a cell viability assay.

CAL-72 = assay type: functional, cell-based; details: Homo sapiens
Description: SANGER: Inhibition of human CAL-72 cell growth in a cell viability assay.

Capan-2 = assay type: functional, cell-based; details: Homo sapiens
Description: SANGER: Inhibition of human Capan-2 cell growth in a cell viability assay.

CAL-33 = assay type: functional, cell-based; details: Homo sapiens
Description: SANGER: Inhibition of human CAL-33 cell growth in a cell viability assay.

CAL-54 = assay type: functional, cell-based; details: Homo sapiens
Description: SANGER: Inhibition of human CAL-54 cell growth in a cell viability assay.

BPH-1 = assay type: functional, cell-based; details: Homo sapiens
Description: SANGER: Inhibition of human BPH-1 cell growth in a cell viability assay.

SK-N-AS = assay type: functional, cell-based; details: Homo sapiens
Description: SANGER: Inhibition of human SK-N-AS cell growth in a cell viability assay.

HCC1806 = assay type: functional, cell-based; details: Homo sapiens
Description: SANGER: Inhibition of human HCC1806 cell growth in a cell viability assay.

UMUC3 = assay type: functional, cell-based; details: Homo sapiens
Description: SANGER: Inhibition of human UM-UC-3 cell growth in a cell viability assay.

SAOS-2 = assay type: functional, cell-based; details: Homo sapiens
Description: SANGER: Inhibition of human Saos-2 cell growth in a cell viability assay.

SCC-25 = assay type: functional, cell-based; details: Homo sapiens
Description: SANGER: Inhibition of human SCC-25 cell growth in a cell viability assay.

## NC(=O)Nc1cc(-c2cccc(F)c2)sc1C(=O)N[C@H]1CCCNC1 [AZD-7762]
ACHN
  IC50: 134 nM
NCI-H1563
  IC50: 470 nM
EW-24
  IC50: 289 nM
COLO-741
  IC50: > 2000 nM
KYSE-150 cell line
  IC50: > 2000 nM
J82
  IC50: 805 nM
FaDu
  IC50: 412 nM
HT1197
  IC50: > 2000 nM
FTC-133
  IC50: 303 nM
H4
  IC50: 221 nM
SW948
  IC50: > 2000 nM
D-392MG
  IC50: 456 nM
MIA PaCa-2
  IC50: 375 nM
NCI-H520
  IC50: 1380 nM
A2780
  IC50: 432 nM
LCLC-97TM1
  IC50: 316 nM
GP5d
  IC50: 412 nM
CAMA-1
  IC50: > 2000 nM
NCI-H1573
  IC50: 1420 nM
COR-L105
  IC50: 222 nM
KYSE-510
  IC50: 1580 nM
A2058
  IC50: 451 nM
NCI-H2087
  IC50: > 2000 nM
HPAF-II
  IC50: 970 nM
HuTu80
  IC50: > 2000 nM
MKN-28
  IC50: > 2000 nM
LN-405
  IC50: 877 nM
HCC70
  IC50: 307 nM
COLO-678
  IC50: > 2000 nM
NCI-H727
  IC50: 698 nM
SW1990
  IC50: 384 nM
VM-CUB-1
  IC50: 619 nM
769-P
  IC50: 223 nM
DU-145
  IC50: > 2000 nM
LoVo
  IC50: 162 nM
TYK-nu
  IC50: 281 nM
CAL-72
  IC50: > 2000 nM
Capan-2
  IC50: > 2000 nM
CAL-33
  IC50: 984 nM
CAL-54
  IC50: 740 nM
BPH-1
  IC50: > 2000 nM
SK-N-AS
  IC50: 188 nM
HCC1806
  IC50: 40.2 nM
UMUC3
  IC50: 903 nM
SAOS-2
  IC50: 746 nM
SCC-25
  IC50: > 2000 nM

## Cc1ccc(-n2nc(C(C)(C)C)cc2NC(=O)Nc2ccc(OCCN3CCOCC3)c3ccccc23)cc1 [DORAMAPIMOD]
ACHN
  IC50: > 10000 nM
NCI-H1563
  IC50: > 10000 nM
COLO-741
  IC50: > 10000 nM
KYSE-150 cell line
  IC50: > 10000 nM
J82
  IC50: > 10000 nM
FaDu
  IC50: > 10000 nM
HT1197
  IC50: > 10000 nM
FTC-133
  IC50: > 10000 nM
H4
  IC50: > 10000 nM
SW948
  IC50: > 10000 nM
D-392MG
  IC50: > 10000 nM
MIA PaCa-2
  IC50: > 10000 nM
NCI-H520
  IC50: > 10000 nM
A2780
  IC50: > 10000 nM
LCLC-97TM1
  IC50: > 10000 nM
GP5d
  IC50: > 10000 nM
CAMA-1
  IC50: > 10000 nM
NCI-H1573
  IC50: > 10000 nM
COR-L105
  IC50: > 10000 nM
KYSE-510
  IC50: > 10000 nM
A2058
  IC50: > 10000 nM
NCI-H2087
  IC50: > 10000 nM
HPAF-II
  IC50: > 10000 nM
HuTu80
  IC50: > 10000 nM
MKN-28
  IC50: > 10000 nM
LN-405
  IC50: > 10000 nM
HCC70
  IC50: > 10000 nM
COLO-678
  IC50: > 10000 nM
NCI-H727
  IC50: > 10000 nM
SW1990
  IC50: > 10000 nM
VM-CUB-1
  IC50: > 10000 nM
769-P
  IC50: > 10000 nM
DU-145
  IC50: 3940 nM
LoVo
  IC50: > 10000 nM
TYK-nu
  IC50: > 10000 nM
CAL-72
  IC50: > 10000 nM
Capan-2
  IC50: > 10000 nM
CAL-33
  IC50: > 10000 nM
CAL-54
  IC50: > 10000 nM
BPH-1
  IC50: > 10000 nM
SK-N-AS
  IC50: > 10000 nM
HCC1806
  IC50: > 10000 nM
UMUC3
  IC50: > 10000 nM
SAOS-2
  IC50: > 10000 nM
SCC-25
  IC50: > 10000 nM

## CN(NC(=O)CC(=O)NN(C)C(=S)c1ccccc1)C(=S)c1ccccc1 [ELESCLOMOL]
ACHN
  IC50: > 200 nM
NCI-H1563
  IC50: 4.13 nM
EW-24
  IC50: 3.83 nM
COLO-741
  IC50: 176 nM
KYSE-150 cell line
  IC50: 95 nM
J82
  IC50: 14.1 nM
FaDu
  IC50: 5.66 nM
HT1197
  IC50: 21.8 nM
FTC-133
  IC50: 27 nM
H4
  IC50: 7.25 nM
SW948
  IC50: > 200 nM
D-392MG
  IC50: 78.7 nM
MIA PaCa-2
  IC50: 17.1 nM
NCI-H520
  IC50: 135 nM
A2780
  IC50: 0.594 nM
LCLC-97TM1
  IC50: > 200 nM
GP5d
  IC50: > 200 nM
CAMA-1
  IC50: > 200 nM
NCI-H1573
  IC50: 189 nM
COR-L105
  IC50: 6.76 nM
KYSE-510
  IC50: 110 nM
A2058
  IC50: 13.9 nM
NCI-H2087
  IC50: > 200 nM
HPAF-II
  IC50: 38.3 nM
HuTu80
  IC50: 0.791 nM
MKN-28
  IC50: 14 nM
LN-405
  IC50: 87.8 nM
HCC70
  IC50: 53.1 nM
COLO-678
  IC50: 42.5 nM
NCI-H727
  IC50: > 200 nM
SW1990
  IC50: 4.32 nM
VM-CUB-1
  IC50: 12.7 nM
769-P
  IC50: 9.82 nM
DU-145
  IC50: > 200 nM
LoVo
  IC50: 78.6 nM
TYK-nu
  IC50: 12.4 nM
CAL-72
  IC50: 3.02 nM
Capan-2
  IC50: > 200 nM
CAL-33
  IC50: 22.2 nM
CAL-54
  IC50: > 200 nM
BPH-1
  IC50: 83.1 nM
SK-N-AS
  IC50: 30 nM
HCC1806
  IC50: 23.5 nM
UMUC3
  IC50: 7.06 nM
SAOS-2
  IC50: 11.1 nM
SCC-25
  IC50: 23 nM
